This is an account of results in ChEMBL document CHEMBL1131977, “Synthesis and in vitro activity of new oxazolidinone antibacterial agents having substituted isoxazoles” (1999).

≈ marks a conversion by molar mass, not a printed value.

The subject of one experiment is Staphylococcus epidermidis. The experiment in a line: In vitro antibacterial activity against Staphylococcus epidermis (S.e.2) C2235. Type of experiment: functional.
With `CC(=O)NC[C@H]1CN(c2ccc(N3CCN(C(=O)c4cc(-c5cnsn5)no4)CC3)c(F)c2)C(=O)O1`, the minimum inhibitory concentration (MIC) (usually the smallest concentration in the dilution series that meets the test's criterion for growth inhibition) came to 1 µg/mL (≈ 1.94 µM).
Same read-out and setting: then `CC(=O)NC[C@H]1CN(c2ccc(N3CCN(C(=O)c4cc(Cl)no4)CC3)c(F)c2)C(=O)O1`, with 1 µg/mL (≈ 2.15 µM); and `COc1cc(CN2CCN(c3ccc(N4C[C@H](CNC(C)=O)OC4=O)cc3F)CC2)on1`, with 4 µg/mL (≈ 8.94 µM).
`CC(=O)NC[C@H]1CN(c2ccc(N3CCN(C(=O)CO)CC3)c(F)c2)C(=O)O1` [EPEREZOLID] registered an MIC of 1 µg/mL (≈ 2.54 µM).

A further experiment relates to Enterococcus faecalis. The experiment is described as follows: In vitro antibacterial activity against Enterococcus faecalis C6291 (E.f.1). It is filed as functional.
As to `CC(=O)NC[C@H]1CN(c2ccc(N3CCN(C(=O)c4cc(-c5cnsn5)no4)CC3)c(F)c2)C(=O)O1`, the MIC was 2 µg/mL (≈ 3.88 µM).
In the case of `CC(=O)NC[C@H]1CN(c2ccc(N3CCN(C(=O)c4cc(Cl)no4)CC3)c(F)c2)C(=O)O1`, the MIC was determined as 2 µg/mL (≈ 4.29 µM).
`COc1cc(CN2CCN(c3ccc(N4C[C@H](CNC(C)=O)OC4=O)cc3F)CC2)on1` had an MIC of 8 µg/mL (≈ 17.9 µM).
As for `CC(=O)NC[C@H]1CN(c2ccc(N3CCN(C(=O)CO)CC3)c(F)c2)C(=O)O1` [EPEREZOLID], it took 2 µg/mL (≈ 5.07 µM) to inhibit growth (MIC).

The next experiment concerns Staphylococcus epidermidis. The experiment in a line: In vitro antibacterial activity against Staphylococcus epidermis (S.e.1) […]. Type of experiment: functional.
For `CC(=O)NC[C@H]1CN(c2ccc(N3CCN(C(=O)c4cc(-c5cnsn5)no4)CC3)c(F)c2)C(=O)O1`, the MIC was 1 µg/mL (≈ 1.94 µM).
Consider `CC(=O)NC[C@H]1CN(c2ccc(N3CCN(C(=O)c4cc(Cl)no4)CC3)c(F)c2)C(=O)O1`, for which the MIC amounted to 1 µg/mL (≈ 2.15 µM).
The compound `COc1cc(CN2CCN(c3ccc(N4C[C@H](CNC(C)=O)OC4=O)cc3F)CC2)on1` yielded an MIC of 2 µg/mL (≈ 4.47 µM).
For `CC(=O)NC[C@H]1CN(c2ccc(N3CCN(C(=O)CO)CC3)c(F)c2)C(=O)O1` [EPEREZOLID], the MIC came out at 0.5 µg/mL (≈ 1.27 µM). This MIC is about 4-fold lower than that of the compound before.

For the next experiment, the system named is Streptococcus pyogenes. The experiment in a line: In vitro antibacterial activity against Streptococcus pyogenes C6003 (S.p.2). Type of experiment: functional.
On to `CC(=O)NC[C@H]1CN(c2ccc(N3CCN(C(=O)c4cc(-c5cnsn5)no4)CC3)c(F)c2)C(=O)O1`, for which 0.5 µg/mL (≈ 0.97 µM) was the least that counted as inhibitory (MIC).
Same read-out and setting: then `CC(=O)NC[C@H]1CN(c2ccc(N3CCN(C(=O)c4cc(Cl)no4)CC3)c(F)c2)C(=O)O1`, with 1 µg/mL (≈ 2.15 µM); and `COc1cc(CN2CCN(c3ccc(N4C[C@H](CNC(C)=O)OC4=O)cc3F)CC2)on1`, with 1 µg/mL (≈ 2.23 µM); and `CC(=O)NC[C@H]1CN(c2ccc(N3CCN(C(=O)CO)CC3)c(F)c2)C(=O)O1` [EPEREZOLID], with 0.5 µg/mL (≈ 1.27 µM).

The test system of another experiment is Staphylococcus aureus. The experiment is described as follows: In vitro antibacterial activity against Staphylococcus aureus (S. a.) ATCC 29213. Type of experiment: functional.
Consider `CC(=O)NC[C@H]1CN(c2ccc(N3CCN(C(=O)c4cc(-c5cnsn5)no4)CC3)c(F)c2)C(=O)O1`, for which the MIC is 4 µg/mL (≈ 7.76 µM).
Turning to `CC(=O)NC[C@H]1CN(c2ccc(N3CCN(C(=O)c4cc(Cl)no4)CC3)c(F)c2)C(=O)O1`, the MIC was 4 µg/mL (≈ 8.59 µM).
For `COc1cc(CN2CCN(c3ccc(N4C[C@H](CNC(C)=O)OC4=O)cc3F)CC2)on1`, inhibition of growth (MIC) required 8 µg/mL (≈ 17.9 µM).
For the compound `CC(=O)NC[C@H]1CN(c2ccc(N3CCN(C(=O)CO)CC3)c(F)c2)C(=O)O1` [EPEREZOLID], the lowest concentration to inhibit growth (MIC) was 2 µg/mL (≈ 5.07 µM).

Another experiment has as its system Enterococcus faecium. The experiment is described as follows: In vitro antibacterial activity against Enterococcus faecium C6301 (E.f.2). It is filed as functional.
`CC(=O)NC[C@H]1CN(c2ccc(N3CCN(C(=O)c4cc(-c5cnsn5)no4)CC3)c(F)c2)C(=O)O1` yielded an MIC of 2 µg/mL (≈ 3.88 µM).
Compound `CC(=O)NC[C@H]1CN(c2ccc(N3CCN(C(=O)c4cc(Cl)no4)CC3)c(F)c2)C(=O)O1` displayed an MIC of 2 µg/mL (≈ 4.29 µM).
Take `COc1cc(CN2CCN(c3ccc(N4C[C@H](CNC(C)=O)OC4=O)cc3F)CC2)on1`: the MIC is 4 µg/mL (≈ 8.94 µM). Against the preceding compound, the MIC is about 2-fold higher.
For `CC(=O)NC[C@H]1CN(c2ccc(N3CCN(C(=O)CO)CC3)c(F)c2)C(=O)O1` [EPEREZOLID], 1 µg/mL (≈ 2.54 µM) was the least that counted as inhibitory (MIC). Compared with the last compound, the MIC is about 4-fold lower.

The subject of the next experiment is Enterococcus faecium. The experiment is described as follows: In vitro antibacterial activity against vancomycin-resistant Enterococcus faecium C6487 (VRE). It is filed as functional.
Compound `CC(=O)NC[C@H]1CN(c2ccc(N3CCN(C(=O)c4cc(-c5cnsn5)no4)CC3)c(F)c2)C(=O)O1` came in with an MIC of 1 µg/mL (≈ 1.94 µM).
Same read-out and setting: to `CC(=O)NC[C@H]1CN(c2ccc(N3CCN(C(=O)c4cc(Cl)no4)CC3)c(F)c2)C(=O)O1` belongs 2 µg/mL (≈ 4.29 µM); to `COc1cc(CN2CCN(c3ccc(N4C[C@H](CNC(C)=O)OC4=O)cc3F)CC2)on1`, 4 µg/mL (≈ 8.94 µM); to `CC(=O)NC[C@H]1CN(c2ccc(N3CCN(C(=O)CO)CC3)c(F)c2)C(=O)O1` [EPEREZOLID], 1 µg/mL (≈ 2.54 µM).

A further experiment deals with Staphylococcus aureus. The experiment in a line: In vitro antibacterial activity against methicillin-resistant Staphylococcus aureus (MRSA) C6068. It is filed as functional.
With `CC(=O)NC[C@H]1CN(c2ccc(N3CCN(C(=O)c4cc(-c5cnsn5)no4)CC3)c(F)c2)C(=O)O1`, the MIC worked out at 1 µg/mL (≈ 1.94 µM).
Turning to `CC(=O)NC[C@H]1CN(c2ccc(N3CCN(C(=O)c4cc(Cl)no4)CC3)c(F)c2)C(=O)O1`, the minimal inhibitory concentration (MIC) amounted to 1 µg/mL (≈ 2.15 µM).
In the case of `COc1cc(CN2CCN(c3ccc(N4C[C@H](CNC(C)=O)OC4=O)cc3F)CC2)on1`, the MIC came to 4 µg/mL (≈ 8.94 µM).
`CC(=O)NC[C@H]1CN(c2ccc(N3CCN(C(=O)CO)CC3)c(F)c2)C(=O)O1` [EPEREZOLID] had an MIC of 1 µg/mL (≈ 2.54 µM).

The subject of another experiment is Streptococcus pyogenes. The experiment is described as follows: In vitro antibacterial activity against Streptococcus pyogenes ATCC 8668 (S.p.1). Type of experiment: functional.
In turn, `CC(=O)NC[C@H]1CN(c2ccc(N3CCN(C(=O)c4cc(-c5cnsn5)no4)CC3)c(F)c2)C(=O)O1` displayed an MIC of 0.5 µg/mL (≈ 0.97 µM).
Compound `CC(=O)NC[C@H]1CN(c2ccc(N3CCN(C(=O)c4cc(Cl)no4)CC3)c(F)c2)C(=O)O1` showed a minimal inhibitory concentration (MIC) of 1 µg/mL (≈ 2.15 µM).
Same read-out and setting: to `COc1cc(CN2CCN(c3ccc(N4C[C@H](CNC(C)=O)OC4=O)cc3F)CC2)on1` belongs 1 µg/mL (≈ 2.23 µM).
The compound `CC(=O)NC[C@H]1CN(c2ccc(N3CCN(C(=O)CO)CC3)c(F)c2)C(=O)O1` [EPEREZOLID] came in with an MIC of 0.25 µg/mL (≈ 0.634 µM).

Another experiment relates to Staphylococcus aureus. The experiment in a line: In vitro antibacterial activity against methicillin-susceptible Staphylococcus aureus (MSSA) C2214. Type of experiment: functional.
With `CC(=O)NC[C@H]1CN(c2ccc(N3CCN(C(=O)c4cc(-c5cnsn5)no4)CC3)c(F)c2)C(=O)O1`, inhibition of growth (MIC) required 4 µg/mL (≈ 7.76 µM).
`CC(=O)NC[C@H]1CN(c2ccc(N3CCN(C(=O)c4cc(Cl)no4)CC3)c(F)c2)C(=O)O1`: the MIC was 4 µg/mL (≈ 8.59 µM).
The same measure, in the same setting: to `COc1cc(CN2CCN(c3ccc(N4C[C@H](CNC(C)=O)OC4=O)cc3F)CC2)on1` belongs 8 µg/mL (≈ 17.9 µM).
In turn, `CC(=O)NC[C@H]1CN(c2ccc(N3CCN(C(=O)CO)CC3)c(F)c2)C(=O)O1` [EPEREZOLID] had an MIC of 2 µg/mL (≈ 5.07 µM).

The test system of another experiment is Staphylococcus aureus. The experiment in a line: In vitro antibacterial activity against ciprofloxacin-resistant Staphylococcus aureus (CRSA) C6043. Type of experiment: functional.
The compound `CC(=O)NC[C@H]1CN(c2ccc(N3CCN(C(=O)c4cc(-c5cnsn5)no4)CC3)c(F)c2)C(=O)O1` had an MIC of 2 µg/mL (≈ 3.88 µM).
Consider `CC(=O)NC[C@H]1CN(c2ccc(N3CCN(C(=O)c4cc(Cl)no4)CC3)c(F)c2)C(=O)O1`, for which the MIC came to 2 µg/mL (≈ 4.29 µM).
Take `COc1cc(CN2CCN(c3ccc(N4C[C@H](CNC(C)=O)OC4=O)cc3F)CC2)on1`: it took 8 µg/mL (≈ 17.9 µM) to inhibit growth (MIC). Against the preceding compound, the MIC is about 4-fold higher.
In turn, `CC(=O)NC[C@H]1CN(c2ccc(N3CCN(C(=O)CO)CC3)c(F)c2)C(=O)O1` [EPEREZOLID] showed an MIC of 2 µg/mL (≈ 5.07 µM). This MIC is about 4-fold lower than that of the compound before.
